Assays:
Format in all cases: physicochemical
[1] = Effect of MCT content on the solubility of FK506 in HFAs; set-up: key to Solubility of FK506 in HFAs (solution or suspension): ∘: solution; —: suspension
Experimental: The addition of MCT enables the filling of FK506 as a solution into aerosol system. As a result, the change of spray performance will not be caused by aggregation of FK506 crystalline particles and the emitted dose uniformity of FK506 can be more reliable. The aerosol compositions used in this study were prepared according to a similar manner to that of Example 2.

[2] = Aerodynamic particle size distribution (USP23 Apparatus 1, multistage cascade impactor); settings: for Mass Median Aerodynamic Diameter: 0.05% FK506 aerosol composition
Experimental: Aerodynamic Particle Size Distribution According to the conventional method in USP23 (Apparatus 1), the aerodynamic particle size distribution was assessed from FK506 amount in each stage after applying one mg FK506 to multistage cascade impactor by firing FK506 aerosol composition. FK506 measurement was conducted by HPLC method and the MMAD was calculated from the particle size distribution. The FK506 aerosol compositions were prepared according to a similar manner to that of the below-mentioned Example 2.

[3] = Dissolution test of mist particles (JP12 paddle method); settings: for T 50% (dissolution rate of FK506): distilled water 37° C., paddle 50 rpm
Experimental: Dissolution Test FK506 dissolution from the mist particles after firing FK506 aerosol composition was examined in distilled water at 37° C. using the paddle method at 50 rpm, according to the dissolution test method in JP12. The emitted dose from aerosol composition was adjusted to be one mg FK506 as a total in the test fluid. FK506 was measured by HPLC method. The FK506 aerosol compositions were prepared according to a similar manner to that of Example 2.

## C=CC[C@@H]1/C=C(\C)C[C@H](C)C[C@H](OC)[C@H]2O[C@@](O)(C(=O)C(=O)N3CCCC[C@H]3C(=O)O[C@H](/C(C)=C/[C@@H]3CC[C@@H](O)[C@H](OC)C3)[C@H](C)[C@@H](O)CC1=O)[C@H](C)C[C@@H]2OC [FK506, 17-allyl-1,14-dihydroxy-12-[2-(4-hydroxy-3-methoxycyclohexyl)-1-methylvinyl]-23,25-dimethoxy-13,19,21,27-tetramethyl-11,28-dioxa-4-azatricyclo-[22.3.1.0^4,9]octacos-18-ene-2,3,10,16-tetraone]
[1]; MCT content 0.05%, FK506 content 0.05 w/v % in HFA-134a
  Solubility of FK506 in HFAs (solution or suspension): ∘
[1]; MCT content 0.05%, FK506 content 0.05 w/v % in HFA-227
  Solubility of FK506 in HFAs (solution or suspension): ∘
[1]; MCT content 0.05%, FK506 content 0.1 w/v % in HFA-227
  Solubility of FK506 in HFAs (solution or suspension): —
[1]; MCT content 0.05%, FK506 content 0.2 w/v % in HFA-134a
  Solubility of FK506 in HFAs (solution or suspension): —
[1]; MCT content 0.05%, FK506 content 0.2 w/v % in HFA-227
  Solubility of FK506 in HFAs (solution or suspension): —
[1]; MCT content 0.05%, FK506 content 0.5 w/v % in HFA-227
  Solubility of FK506 in HFAs (solution or suspension): —
[1]; MCT content 0.5%, FK506 content 0.05 w/v % in HFA-134a
  Solubility of FK506 in HFAs (solution or suspension): ∘
[1]; MCT content 0.5%, FK506 content 0.05 w/v % in HFA-227
  Solubility of FK506 in HFAs (solution or suspension): ∘
[1]; MCT content 0.5%, FK506 content 0.1 w/v % in HFA-227
  Solubility of FK506 in HFAs (solution or suspension): ∘
[1]; MCT content 0.5%, FK506 content 0.2 w/v % in HFA-134a
  Solubility of FK506 in HFAs (solution or suspension): —
[1]; MCT content 0.5%, FK506 content 0.2 w/v % in HFA-227
  Solubility of FK506 in HFAs (solution or suspension): —
[1]; MCT content 0.5%, FK506 content 0.5 w/v % in HFA-227
  Solubility of FK506 in HFAs (solution or suspension): —
[1]; MCT content 2%, FK506 content 0.05 w/v % in HFA-134a
  Solubility of FK506 in HFAs (solution or suspension): ∘
[1]; MCT content 2%, FK506 content 0.05 w/v % in HFA-227
  Solubility of FK506 in HFAs (solution or suspension): ∘
[1]; MCT content 2%, FK506 content 0.1 w/v % in HFA-227
  Solubility of FK506 in HFAs (solution or suspension): ∘
[1]; MCT content 2%, FK506 content 0.2 w/v % in HFA-134a
  Solubility of FK506 in HFAs (solution or suspension): ∘
[1]; MCT content 2%, FK506 content 0.2 w/v % in HFA-227
  Solubility of FK506 in HFAs (solution or suspension): ∘
[1]; MCT content 2%, FK506 content 0.5 w/v % in HFA-227
  Solubility of FK506 in HFAs (solution or suspension): —
[1]; MCT content 5%, FK506 content 0.05 w/v % in HFA-134a
  Solubility of FK506 in HFAs (solution or suspension): ∘
[1]; MCT content 5%, FK506 content 0.05 w/v % in HFA-227
  Solubility of FK506 in HFAs (solution or suspension): ∘
[1]; MCT content 5%, FK506 content 0.1 w/v % in HFA-227
  Solubility of FK506 in HFAs (solution or suspension): ∘
[1]; MCT content 5%, FK506 content 0.2 w/v % in HFA-134a
  Solubility of FK506 in HFAs (solution or suspension): ∘
[1]; MCT content 5%, FK506 content 0.2 w/v % in HFA-227
  Solubility of FK506 in HFAs (solution or suspension): ∘
[1]; MCT content 5%, FK506 content 0.5 w/v % in HFA-227
  Solubility of FK506 in HFAs (solution or suspension): —
[1]; by mixing MCT into liquefied hydrofluoroalkanes
  Solubility of FK506 (change): increased up
[2]; propellant HFA-134a, MCT content 0.5%
  Mass Median Aerodynamic Diameter: 1.6 μm
[2]; propellant HFA-227, MCT content 0.05%
  Mass Median Aerodynamic Diameter: 1.5 μm
[2]; propellant HFA-227, MCT content 0.5%
  Mass Median Aerodynamic Diameter: 1.7 μm
[2]; propellant HFA-227, MCT content 1%
  Mass Median Aerodynamic Diameter: 2.5 μm
[2]; propellant HFA-227, MCT content 2%
  Mass Median Aerodynamic Diameter: 3.1 μm
[2]; propellant HFA-227, MCT content 5%
  Mass Median Aerodynamic Diameter: 4.0 μm
[2]; FK506 aerosol composition, addition of MCT
  Mass median aerodynamic diameter (MMAD), trend: increased in proportion to MCT amount added
[3]; HFA-134a, MCT content 0.5%, FK506 0.05%
  T 50% (dissolution rate of FK506): 29 min
[3]; HFA-134a, MCT content 0.5%, FK506 0.2%
  T 50% (dissolution rate of FK506): 11 min
[3]; HFA-134a, MCT content 2%, FK506 0.05%
  T 50% (dissolution rate of FK506): 41 min
[3]; HFA-134a, MCT content 2%, FK506 0.2%
  T 50% (dissolution rate of FK506): 25 min
[3]; HFA-227, MCT content 0%, FK506 0.05%
  T 50% (dissolution rate of FK506): 5 min
[3]; HFA-227, MCT content 0%, FK506 0.2%
  T 50% (dissolution rate of FK506): 9 min
[3]; HFA-227, MCT content 0.5%, FK506 0.05%
  T 50% (dissolution rate of FK506): 30 min
[3]; HFA-227, MCT content 0.5%, FK506 0.2%
  T 50% (dissolution rate of FK506): 12 min
[3]; HFA-227, MCT content 1%, FK506 0.05%
  T 50% (dissolution rate of FK506): 38 min
[3]; HFA-227, MCT content 1%, FK506 0.2%
  T 50% (dissolution rate of FK506): 15 min
[3]; HFA-227, MCT content 2%, FK506 0.05%
  T 50% (dissolution rate of FK506): 43 min
[3]; HFA-227, MCT content 2%, FK506 0.2%
  T 50% (dissolution rate of FK506): 28 min
[3]; HFA-227, MCT content 5%, FK506 0.05%
  T 50% (dissolution rate of FK506): 51 min
[3]; HFA-227, MCT content 5%, FK506 0.2%
  T 50% (dissolution rate of FK506): 37 min
[3]; addition of MCT
  Release rate of FK506 from the mist particles, trend: declined with addition of MCT
